We go through one compound from PMC9863751, “Specific Binding of the α-Component of the Lantibiotic Lichenicidin to the Peptidoglycan Precursor Lipid II Predetermines Its Antimicrobial Activity” (International Journal of Molecular Sciences, 2023).

This test has as its target T1, Lchα (α-component of the lantibiotic lichenicidin) (Bacillus licheniformis, UniProt P86475).
T1 construct: gene lchA1; mature post-translationally modified lantibiotic, 32 residues (leader removed; N-terminal 2-oxobutyryl, Abu3-Cys7 ring A, four (methyl)lanthionine rings); native purification from culture supernatant, 15N-labelled, no tag
T1 sequence (P86475 43-74): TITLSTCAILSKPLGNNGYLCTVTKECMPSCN
Kind of test: NMR titration ([…]-HSQC, Asn32 signal intensity). Type of test: binding. The following applies: read-out: Kapp.

Consider `CC(=O)N[C@H]1[C@H](O[C@H]2[C@H](O[C@H](C)C(=O)N[C@@H](C)C(=O)N[C@H](CCC(=O)N[C@@H](CCCCN)C(=O)N[C@H](C)C(=O)N[C@H](C)C(=O)O)C(=O)O)[C@@H](NC(C)=O)[C@@H](OP(=O)(O)OP(=O)(O)OC/C=C(/C)CC/C=C(/C)CC/C=C(/C)CC/C=C(/C)CC/C=C(/C)CC/C=C(/C)CC/C=C(/C)CC/C=C(/C)CC/C=C(\C)CC/C=C(\C)CCC=C(C)C)O[C@@H]2CO)O[C@H](CO)[C@@H](O)[C@@H]1O` [lipid II], for which the Kd was about 10 µM.
